Results on four compounds are retold here after patent publication US10144694B2, “Methods for preparing phenolic branched chain alkyl fatty acids or esters thereof and methods for killing microorganisms” (The United States of America, as Represented by the …, priority 2016, dated 2018).

In assay [1] the test system is Listeria innocua ATCC 33090. Kind of assay: MIC/MBC micro-dilution. Type of assay: cell-based.
For assay [2], the system named is Listeria innocua ATCC 33090. Kind of assay: Antimicrobial test, 5 min treatment, plate count. The format is cell-based. To be noted: 0.1%. The method, then:
Since the solutions contained 10% of ethanol, ethanol (10%) along with water were used as references. The bacteria and the solutions were vortexed and incubated at ambient temperature ([…]) for 5 min before immediately being plated (diluted when needed) on TSA to determine the survival of the bacteria. After 24 h at 37° C., colonies on the plates were counted.
Statistical analysis: Data on antimicrobial test were subjected to statistical analysis using SAS Version 8.2 (SAS Institute, Cary, N.C.). The Duncan's multiple range test was used for the treatment effects.

Setting [3] is: Listeria innocua, ATCC33090, 24 h.

Structures are written as SMILES. Values after ≈ are worked out from the molar mass of the structure shown. Read-outs that look alike come from different tables or passages of the source.

Consider `Oc1ccccc1` [Phenol, phenol], for which the MBC in assay [1] (Listeria innocua, ATCC33090) was > 454 µg/mL. Also, in assay [1] (setting [3]), the MIC is > 454 µg/mL. Further, in assay [2], the “Effect on population of L. innocua” value is on record as “no significant effect”.

`Cc1ccc(C(C)C)c(O)c1` [Thymol]: the MIC in assay [1] (ATCC33090, Listeria innocua ATCC 33090, 24 h at 37° C., read-out: MIC) was 233 to 454 µg/mL (≈ 1.55 to 3.03 mM). Further, the MBC in assay [1] (ATCC33090, Listeria innocua ATCC 33090, read-out: MBC) is > 454 µg/mL.

For the compound `CCCCCCCC/C=C\CCCCCCCC(=O)O` [OLA, oleic acid], the “Reduction of population of L. innocua” value in assay [2] is reported as 3.5 logs CFU/mL.

In assay [1] (Listeria innocua, ATCC33090), `Cc1ccc(C(C)C)cc1O` [Carvacrol] showed an MBC of 454 µg/mL (≈ 3.03 mM). The compound also displayed an MIC in assay [1] (setting [3]) of 233 to 454 µg/mL (≈ 1.55 to 3.03 mM).
